Laboratory results taken from patent US7459481B2, “Stimulation of CPT-1 as a means to reduce weight” (The Johns Hopkins University School of Medicine Licensing …, priority 2002, dated 2008).

Columns and labels:
MCF-7 cells [1] = assay: Fatty acid oxidation ([1-14C]palmitate to 14CO2) in MCF-7 cells; format: cell-based, human
Protocol: (§1) Human breast cancer cell line MCF-7 was obtained from the American Type Culture Collection. 1×10^6 MCF-7 cells were plated in T-25 flasks in triplicate and incubated overnight at 37° C. Drugs were then added as indicated diluted from 5 mg/ml stock in DMSO. After 2 hours, medium with drugs was removed and cells were preincubated for 30 min. with 1.5 ml of the following buffer: 114 mM NaCl, 4.7 mM KCl, 1.2 mM KH2PO4, 1.2 mM MgSO4, glucose 11 mM. After preincubation, 200 μl of assay buffer was added containing: 114 mM NaCl, 4.7 mM KCl, 1.2 mM KH2PO4, 1.2 mM MgSO4, glucose 11 mM, 2.5 mM palmitate (containing with 10 μCi of [1-^14C]palmitate) bound to albumin, 0.8 mM L-carnitine, and cells were incubated at 37° C. for 2 h. Following the incubation, 400 μl of benzethonium hydrochloride was added to the center well to collect released ^14CO2. Immediately, the reaction was stopped by adding 500 μl of 7% perchloric acid to the cells. The flasks with wells were then incubated for 2 h at 37° C. after which the benzothonium hydrochloride was removed and counted for ^14C. Blanks were prepared by adding 500 μl of 7% perchloric acid to the cells prior to the incubation with the assay buffer for 2 h.
FAS activity was measured by monitoring the malonyl-CoA dependent oxidation of NADPH spectrophotometrically at OD340 in 96-well plates, as described in International Patent Publication WO 2004/005277. The IC50 for the compounds against FAS was determined by plotting the change in OD340 against time for each inhibitor concentration tested and determining the rate of change by linear regression. The concentration of a particular compound yielding 50% inhibition of the rate for FAS in the absence of the compound is the IC50. Stimulation of CPT-1 activity was measured as described in Example 2, except the cells were preincubated with the compound for 2 hours at the concentrations indicated in the table. Stimulation of Fatty acid oxidation was determined as described in Example 1 for cells preincubated with the compounds at the concentrations indicated in the table.

MCF-7 cells [2] = assay: Total cellular ATP (luciferase assay) in MCF-7 cells; format: cell-based, human; details: MCF-7, 10 μg/ml and 20 μg/ml, 2 hours, FIG. 5
Protocol: (§2) 1×10^5 MCF-7 cells were plated in 96 well plates. Cells were treated with C75 or vehicle. After 2 hours, ATP was measured using a luciferase assay using the ATP Bioluminescence Kit CLS II (Roche) following the manufacturer's protocol. Plates were read by a Perkin Elmer Wallac Victor^2 1420 luminometer. […] Similar results were obtained after 1 hr incubation with C75. Thus, cellular energy production increased as a result of C75 increasing fatty acid oxidation.

3T3-L1 adipocytes [3] = assay: Fatty acid oxidation in differentiated 3T3-L1 adipocytes; format: cell-based, mouse; details: 20 μg/ml or greater, 2 hours, FIG. 6
Protocol: as §1, with “Following the incubation, 400 μl of benzethonium hydrochloride was added to the center well to collect released ^14CO2. Immediately, the reaction was stopped by adding 500 μl of 7% perchloric acid to the cells.” left out, “Blanks were prepared by adding 500 μl of 7% perchloric acid to the cells prior to the incubation with the assay buffer for 2 h.” left out
(§3) To expand the study of effects of C75 on fatty acid metabolism beyond cancer cell lines to normal adipocytes, differentiated (non-transformed) mouse NIH 3T3-L1 adipocytes were used in assays similar to those performed with the MCF-7 cells. […] The differentiated cells were ready to be used for experiments in 7-10 days.
(§4) C75 increased CPT-1 activity and fatty acid metabolism in the NIH 3T3-L1 cells differentiated into adipocytes. […] CPT-1 activity, fatty acid oxidation, and total cellular ATP were measured as described in Examples 2, 1, and 4. […]

3T3-L1 adipocytes [4] = assay: Total cellular ATP in differentiated 3T3-L1 adipocytes; format: cell-based, mouse; details: 20 μg/ml or greater, 2 hours, FIG. 7
Protocol: as §2
To expand the study of effects of C75 on fatty acid metabolism beyond cancer cell lines to normal adipocytes, differentiated (non-transformed) mouse NIH 3T3-L1 adipocytes were used in assays similar to those performed with the MCF-7 cells. 3T3-L1 cells were obtained from the American Type Culture Collection, and cells were cultured in DMEM with high glucose (4.5 g/l ) (Gibco 12100-046) with 10% fetal calf serum and Biotin (Sigma B-4639) 0.008 g/L. Differentiation was initiated three days after the cells were confluent, when the standard culture medium was replaced with differentiation medium. […] The differentiated cells were ready to be used for experiments in 7-10 days.
as §4

CPT-1 = CPT-1 activity in differentiated 3T3-L1 adipocytes; format: cell-based, mouse; details: 2 hours
Protocol: CPT-1 activity was assayed in MCF-7 cells by the following published procedure: MCF-7 cells were plated in DMEM with 10% fetal bovine serum at 10^6 cells in 24-well plates in triplicate. Following overnight incubation at 37° C., the medium was removed and replaced with 700 μl of assay medium consisting of: 50 mM imidazole, 70 mM KCl, 80 mM sucrose, 1 mM EGTA, 2 mM MgCl2, 1 mM DTT, 1 mM KCN, 1 mM ATP, 0.1% fatty acid free bovine serum albumin, 70 μM palmitoyl-CoA, 0.25 μCi [methyl-^14C]L-carnitine, 40 μg digitonin with or without 20 μM malonyl-CoA. After incubation for 6 minutes at 37° C., the reaction was stopped by the addition of 500 μl of ice-cold 4 M perchloric acid. Cells were then harvested and centrifuged at 13,000×g for 5 min. […] The butanol phase was counted by liquid scintillation and represents the acylcarnitine derivative.
as §3, §4

In the case of `C=C1C(=O)OC(CCCCCCCC)C1C(=O)O` (stereo not shown) [Compound C75], the “Fatty Acid Oxidation (% Control)” value (MCF-7 cells [1]; 10 μg/mL) is reported as 400 % Control, the “effect on fatty acid oxidation” value (MCF-7 cells [1]; MCF-7, doses from 5-20 μg/ml) is reported as “increased fatty acid oxidation” and the “increase in fatty acid oxidation compared to the control” value (MCF-7 cells [1]; MCF-7, treated 2 hours before measurement, FIG. 1) is reported as 156%. The “total cellular ATP” value (MCF-7 cells [2]) was “significant increase”, the fatty acid oxidation (3T3-L1 adipocytes [3]) was “significantly increased” and the “levels of ATP” value (3T3-L1 adipocytes [4]) was “significantly increased”. For the same molecule, the “increase in CPT-1 activity above control” value (CPT-1) was 377%.
